Source: patent US10899738B2 (THE REGENTS OF THE UNIVERSITY OF MICHIGAN, priority 2016, dated 2021)

target: menin protein (Homo sapiens (Human), UniProt O00255); test: biochemical; assay type: binding; settings: FP competitive binding; menin protein 4 nM, FAM-MM2 probe 2 nM
Description: A fluorescence polarization (FP) competitive binding assay was used to determine the binding affinities of representative menin inhibitors. A FAM labeled fluorescent probe was designed and synthesized based on a MLL1 peptide (FAM-MM2). Equilibrium dissociation constant (Kd) value of FAM-MM2 to menin protein was determined from protein saturation experiments by monitoring the total fluorescence polarization of mixtures composed with the fluorescent probe at a fixed concentration and the protein with increasing concentrations up to full saturation. Serial dilutions of the protein were mixed with FAM-MM2 to a final volume of 200 μl in the assay buffer (PBS with 0.02% Bovine γ-Globulin and 4% DMSO. 0.01% Triton X-100 was added right before assays). Final FAM-MM2 concentration was 2 nM. Plates were incubated at room temperature for 30 minutes with gentle shaking to assure equilibrium.
The IC50, see Table 3, and Ki values of representative Compounds of the Disclosure were determined in a competitive binding experiment. Mixtures of 5 μl of the tested compounds in DMSO and 195 μl of preincubated protein/probe complex solution in the assay buffer were added into assay plates which were incubated at room temperature for 30 minutes with gentle shaking. Final concentration of the menin protein was 4 nM, and final probe concentration is 2 nM. […] FP values were measured as described above. IC50 values were determined by nonlinear regression fitting of the competition curves.

Chain of menin protein (O00255 whole entry): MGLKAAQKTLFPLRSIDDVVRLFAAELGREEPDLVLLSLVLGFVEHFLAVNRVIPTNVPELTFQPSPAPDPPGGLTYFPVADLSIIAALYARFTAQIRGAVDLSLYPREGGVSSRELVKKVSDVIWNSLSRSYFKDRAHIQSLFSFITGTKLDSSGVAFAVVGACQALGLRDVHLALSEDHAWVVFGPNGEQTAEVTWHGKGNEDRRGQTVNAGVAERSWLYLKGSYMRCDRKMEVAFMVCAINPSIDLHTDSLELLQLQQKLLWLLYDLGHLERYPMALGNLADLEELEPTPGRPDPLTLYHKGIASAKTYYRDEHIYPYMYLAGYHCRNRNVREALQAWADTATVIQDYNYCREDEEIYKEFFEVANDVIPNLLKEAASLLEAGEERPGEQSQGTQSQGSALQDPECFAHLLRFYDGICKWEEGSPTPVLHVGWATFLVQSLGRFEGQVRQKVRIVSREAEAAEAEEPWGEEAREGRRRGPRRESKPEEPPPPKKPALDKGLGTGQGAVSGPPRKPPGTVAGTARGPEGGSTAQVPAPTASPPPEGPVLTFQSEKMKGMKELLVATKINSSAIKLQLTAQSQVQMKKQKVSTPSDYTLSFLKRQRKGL

Menin Binding Affinity IC50 (μM)	Structure (SMILES)
No inhibition	CC(=O)O[C@@H]1CCC[C@H]1C(C#N)(c1ccccc1)C1CCN(CC#Cc2ccc(C#N)cc2)CC1 (mixture of isomers) [compound 387, rac-(1R,2S)-2-(cyano(1-(3-(4-cyanophenyl)prop-2-yn-1-yl)piperidin-4-yl)(phenyl)methyl)cyclopentyl acetate]
No inhibition	N#Cc1ccc(OCCCN2CC(C3(C4CCCC4)c4ccccc4CCN3CCCOc3ccc(C#N)cc3)C2)cc1 (centres unmarked) [compound 61]

same assay, conditions: FP competitive binding; menin protein 4 nM, FAM-MM2 probe 2 nM; read-out: Menin Binding Affinity IC50

Structure (SMILES)	IC50
N#Cc1ccc2[nH]c(CCN3CCC(C4(C5CCCC5)NCCc5ccccc54)CC3)cc2c1 (centres unmarked) [compound 67, 2-(2-(4-(1-cyclopentyl-1,2,3,4-tetrahydroisoquinolin-1-yl)piperidin-1-yl)ethyl)-1H-indole-5-carbonitrile]	1.2 µM
CN1CCC(C2(C3CCCCN3)CN(C)Cc3ccccc32)CC1 (centres unmarked) [compound 166, 2-methyl-4-(1-methylpiperidin-4-yl)-4-(piperidin-2-yl)-1,2,3,4-tetrahydroisoquinoline]	1410 µM
N#Cc1cc2ccc(C(=O)N[C@H]3CC[C@H](C4(C5CCCC5)NCCc5ccccc54)CC3)cc2[nH]1 (some centres unmarked) [compound 81, 2-cyano-N-((1r,4r)-4-(1-cyclopentyl-1,2,3,4-tetrahydroisoquinolin-1-yl)cyclohexyl)-1H-indole-6-carboxamide]	1.9 µM
c1ccc2c(c1)CCNC2(CC1CCNCC1)C1CCCC1 (centres unmarked) [compound 107, 1-cyclopentyl-1-(piperidin-4-ylmethyl)-1,2,3,4-tetrahydroisoquinoline]	299 µM
CS(=O)(=O)N[C@H]1CCC[C@@H]1C(C#N)(c1ccccc1)C1CCN(CC2CN(c3ccc(S(=O)(=O)c4ccncc4)cc3)C2)CC1 (mixture of isomers) [compound 267, rac-N-((1S,2R)-2-(cyano(phenyl)(1-((1-(4-(pyridin-4-ylsulfony)phenyl)azetidin-3-yl)methyl)piperidin-4-yl)methyl)cyclopentyl) methanesulfonamide]	0.437 µM
CS(=O)(=O)c1ccc(OCCCN2CCC(C3(C4CCCCC4)NCCc4ccccc43)CC2)cc1 (centres unmarked) [compound 295, 1-cyclohexyl-1-(1-(3-(4-(methylsulfonyl)phenoxy)propyl)piperidin-4-yl)-1,2,3,4-tetrahydroisoquinoline]	1.9 µM
N#CC(c1ccccc1)(C1CCCC1)C1CCN(CCCOc2ccc(S(=O)(=O)c3ccccc3)cc2)CC1 (centres unmarked) [compound 126, 2-cyclopentyl-2-phenyl-2-(1-(3-(4-(phenylsulfonyl)phenoxy)propyl)piperidin-4-yl)acetonitrile]	58.4 µM
CNC(=O)O[C@@H]1CCC[C@H]1C(CN1CCCC1)(c1ccccc1)C1CCN(CC2CN(c3ccc(S(=O)(=O)c4ccccc4)cc3)C2)CC1 (mixture of isomers) [compound 360, rac-(1R,2S)-2-(1-phenyl-1-(1-((1-(4-(phenylsulfonyl)phenyl)azetidin-3-yl)methyl)piperidin-4-yl)-2-(pyrrolidin-1-yl)ethyl)cyclopentyl methylcarbamate]	1.4 µM
CC(C)C(=O)O[C@H]1CCC[C@@H]1C(C#N)(c1ccccc1)C1CCN(CC2CN(c3ccc(S(=O)(=O)c4ccncc4)cc3)C2)CC1 (mixture of isomers) [compound 193, rac-(1S,2R)-2-(cyano(phenyl)(1-((1-(4-(pyridin-4-ylsulfonyl)phenyl)azetidin-3-yl)methyl)piperidin-4-yl)methyl)cyclopentyl isobutyrate]	0.237 µM
CNC(=O)O[C@H]1CCC[C@@H]1C(CN1CCCC1)(c1ccccc1)C1CCN(CC2CN(c3ccc(S(=O)(=O)c4ccccc4)cc3)C2)CC1 (mixture of isomers) [compound 361, rac-(1S,2R)-2-(1-phenyl-1-(1-((1-(4-(phenylsulfonyl)phenyl)azetidin-3-yl)methyl)piperidin-4-yl)-2-(pyrrolidin-1-yl)ethyl)cyclopentyl methylcarbamate]	0.063 µM
CCS(=O)(=O)c1ccc(N2CC(C(=O)N3CCC(C4(C5CCCC5)NCCc5c(F)cccc54)CC3)C2)cc1 (centres unmarked) [compound 116, (4-(1-cyclopentyl-5-fluoro-1,2,3,4-tetrahydroisoquinolin-1-yl)piperidin-1-yl)(1-(4-(ethylsulfonyl)phenyl)azetidin-3-yl)methanone]	6 µM
CNC(=O)O[C@@H]1CCC[C@H]1C(Cn1ccnc1)(c1ccccc1)C1CCN(CC2CN(c3ccc(S(=O)(=O)c4ccccc4)cc3)C2)CC1 (mixture of isomers) [compound 237, rac-(1R,2S)-2-(2-(1H-imidazol-1-yl)-1-phenyl-1-(1-((1-(4-(phenylsulfonyl)phenyl)azetidin-3-yl)methyl)piperidin-4-yl)ethyl)cyclopentyl methylcarbamate]	0.042 µM
CC(=O)O[C@H]1CCC[C@@H]1C1(C2CCN(CC3CN(c4ccc(S(=O)(=O)c5ccnc(C)c5)cc4)C3)CC2)CN(C)Cc2ccccc21 (mixture of isomers) [compound 202, rac-(1R,2S)-2-(2-methyl-4-(1-((1-(4-((2-methylpyridin-4-yl)sulfonyl)phenyl)azetidin-3-yl)methyl)piperidin-4-yl)-1,2,3,4-tetrahydroisoquinolin-4-yl)cyclopentyl acetate]	0.113 µM
N#Cc1ccc(OCCCN2CCC(C3(C4CCCC4)CNC(=O)c4ccccc43)CC2)cc1 (centres unmarked) [compound 21, 4-(3-(4-(4-cyclopentyl-1-oxo-1,2,3,4-tetrahydroisoquinolin-4-yl)piperidin-1-yl)propoxy)benzonitrile]	1.1 µM
CNC(=O)O[C@H]1CCC[C@@H]1C(Cn1ccnc1)(c1ccccc1)C1CCN(C(=O)CCCc2ccc(C#N)cc2)CC1 (mixture of isomers) [compound 380, rac-(1S,2R)-2-(1-(1-(4-(4-cyanophenyl)butanoyl)piperidin-4-yl)-2-(1H-imidazol-1-yl)-1-phenylethyl)cyclopentyl methylcarbamate]	0.798 µM
CSC[C@H]1CCC[C@@H]1C(C#N)(c1ccccc1)C1CCN(CC2CN(c3ccc(S(=O)(=O)c4ccncc4)cc3)C2)CC1 (mixture of isomers) [compound 259, rac-2-((1S,2S)-2-((methylthio)methyl)cyclopentyl)-2-phenyl-2-(1-((1-(4-(pyridin-4-ylsulfonyl)phenyl)azetidin-3-yl)methyl)piperidin-4-yl)acetonitrile]	10.3 µM
CCO[C@@H]1CCC[C@H]1C(C#N)(c1ccccc1)C1CCN(CC2CN(c3ccc(S(=O)(=O)c4ccncc4)cc3)C2)CC1 (mixture of isomers) [compound 199, rac-2-((1S,2R)-2-ethoxycyclopentyl)-2-phenyl-2-(1-((1-(4-(pyridin-4-ylsulfonyl)phenyl)azetidin-3-yl)methyl)piperidin-4-yl)acetonitrile]	9 µM
N#Cc1ccc(N2CC(CN3CCC(C4(C5CCCC5)NCCc5ccccc54)CC3)C2)cn1 (centres unmarked) [compound 109, 5-(3-((4-(1-cyclopentyl-1,2,3,4-tetrahydroisoquinolin-1-yl)piperidin-1-yl)methyl)azetidin-1-yl)picolinonitrile]	0.825 µM
N#CC(c1ccccc1)(C1CCN(CC2CN(c3ccc(S(=O)(=O)c4ccncc4)cc3)C2)CC1)[C@@H]1CCC[C@H]1OC(=O)N1CCC1 (mixture of isomers) [compound 222, rac-(1R,2S)-2-(cyano(phenyl)(1-((1-(4-(pyridin-4-ylsulfonyl)phenyl)azetidin-3-yl)methyl)piperidin-4-yl)methyl)cyclopentyl azetidine-1-carboxylate]	2 µM
Cn1cccc1S(=O)(=O)c1ccc(N2CC(CN3CCC(C4(C5CCCC5)NCCc5ccccc54)CC3)C2)cc1 (centres unmarked) [compound 98, 1-cyclopentyl-1-(1-((1-(4-((1-methyl-1H-pyrrol-2-yl)sulfonyl)phenyl)azetidin-3-yl)methyl)piperidin-4-yl)-1,2,3,4-tetrahydroisoquinoline]	0.021 µM
COCC[C@H]1CCC[C@@H]1C(C#N)(c1ccccc1)C1CCN(CC2CN(c3ccc(S(=O)(=O)c4ccnc(C)c4)cc3)C2)CC1 (mixture of isomers) [compound 336, rac-2-((1S,2R)-2-(2-methoxyethyl)cyclopentyl)-2-(1-((1-(4-((2-methylpyridin-4-yl)sulfonyl)phenyl)azetidin-3-yl)methyl)piperidin-4-yl)-2-phenylacetonitrile]	29.4 µM
Cc1cc(S(=O)(=O)c2ccc(N3CC(CN4CCC(C5(C6=CCCC6)CN(C)Cc6ccccc65)CC4)C3)cc2)ccn1 (centres unmarked) [compound 205, 4-(cyclopent-1-en-1-yl)-2-methyl-4-(1-((1-(4-((2-methylpyridin-4-yl)sulfonyl)phenyl)azetidin-3-yl)methyl)piperidin-4-yl)-1,2,3,4-tetrahydroisoquinoline]	0.088 µM
CC(=O)N1CCCCC1C1(C2CCN(CCCOc3ccc(C#N)cc3)CC2)CN(C)Cc2ccccc21 (centres unmarked) [compound 297, 4-(3-(4-(4-(1-acetylpiperidin-2-yl)-2-methyl-1,2,3,4-tetrahydroisoquinolin-4-yl)piperidin-1-yl)propoxy)benzonitrile]	2.1 µM
CNC(=O)C[C@@H]1CCC[C@H]1C(C#N)(c1ccccc1)C1CCN(CC2CN(c3ccc(S(=O)(=O)c4ccncc4)cc3)C2)CC1 (mixture of isomers) [compound 339, rac-2-((1S,2R)-2-(cyano(phenyl)(1-((1-(4-(pyridin-4-ylsulfonyl)phenyl)azetidin-3-yl)methyl)piperidin-4-yl)methyl)cyclopentyl)-N-methylacetamide]	5.2 µM
